The conditions of series [1]: for Solubility in o-Dichlorobenzene: solvent o-dichlorobenzene.
The subject of another series is HIV-1. The following applies: for CPE/syncytia, % / Viability of cells, %: HIV-1; for CPE/syncytia, %: Table 9; for Viability of cells, %: Table 9 (virus control 42).
The test system of series [2] is herpes simplex virus (HSV-1). Kind of series: Antiviral activity with respect to HSV-1 in VERO cells. As to conditions: HSV-1, 10 TCD50/ml, VERO; for Degree of protection from CE virus, % A: substance contact time with cells 24 hrs; for Degree of protection from CE virus, % B: substance contact time with cells 48 hrs. Type of series: cell-based, type 1, strain L2. From the text:
Herpes simplex virus, type 1, strain L2, replicated in VERO cells was used in the investigation.
[…] acyclovir was used as positive control

In series [3] the test system is lymphoblastoid human cells MT-4. Kind of series: Cytotoxicity on non-infected human lymphoblastoid cells. In kind it is cell-based. As to conditions: cytotoxicity.
Setting [4] is: 300 μg/ml, human lymphoblastoid cells.

Like-named read-outs stand apart in the source and are kept apart here.

Method for HIV-1: Cells Reinoculated humans lymphoblastoid cells MT-4 were used. […] The viability of the cells was determined from the color of a 0.4% solution of trypan blue.
Retrovir (azidothymidin) produced by GlaxoWellcome (Great Britain) was used as positive control.
The Antiviral activity of the preparations was investigated on a model of lymphoblastoid cells in a plastic 24-cell plate. The virus dose was 100 TCD50 (50% tissue cytopathic dose). […] The activity of the preparation was determined from the inhibition of the virus-induced cytopathic action (CPA) in the cell cultures and the virus antigen level in the culture fluid by immunoenzymatic analysis.

For the compound `c12c3c4c5c1c1c6c7c2c2c8c3c3c9c4c4c%10c5c5c1c1c6c6c%11c7c2c2c7c8c3c3c8c9c4c4c9c%10c5c5c1c1c6c6c%11c2c2c7c3c3c8c4c4c9c5c1c1c6c2c3c41` [Fullerene], the “Solubility in Glacial acetic acid” value in series [1] (solvent glacial acetic acid) is reported as “No”. For the same compound, in series [1], the “Solubility in o-Dichlorobenzene” value is listed as “Yes”. The “Solubility in Toluene” value in series [1] (solvent toluene) is given as “Yes”. Besides, the “Solubility in Water” value in series [1] (solvent water) is recorded as “No”.
For the compound “sodium salt of fullerene-polyamino-butyric acid [ABA]”, in the series with HIV-1, the “Antiviral activity with respect to HIV-1 compared with fullerene-polyamino-caproic acid” value is “lower antiviral activity”. The “CPE/syncytia, %” value was found to be 25% in the series with HIV-1 (0.1 μg/ml), 15% in the series on HIV-1 (0.5 μg/ml), 10% with HIV-1 (1.0 μg/ml) and 0% with HIV-1 (10.0 μg/ml). Besides, the “Viability of cells, %” value in the series on HIV-1 (0.1 μg/ml) was found to be 52%; with HIV-1 (0.5 μg/ml) it was 65%; with HIV-1 (1.0 μg/ml), 71%; with HIV-1 (10.0 μg/ml), 72%. Also, in series [1], the “Solubility in o-Dichlorobenzene” value is “No”. Besides, the “Degree of protection from CE virus, % A” value in series [2] (0.1 μg/ml) was 0.0%; in series [2] (10.0 μg/ml), 33.3%; in series [2] (25.0 μg/ml), 100%; in series [2] (50.0 μg/ml), 100%. Further, the “Degree of protection from CE virus, % B” value in series [2] (0.1 μg/ml) was 33.3%; in series [2] (10.0 μg/ml), 33.3%; in series [2] (25.0 μg/ml) it was 100%; in series [2] (50.0 μg/ml) it was 100%.
Turning to “sodium salt of fullerene-polyamino-octanoic acid [AOA]”, the “Antiviral activity with respect to HIV-1 compared with fullerene-polyamino-caproic acid” value with HIV-1 is “lower antiviral activity”. The “CPE/syncytia, %” value was 25% in the series with HIV-1 (0.1 μg/ml), 25% with HIV-1 (0.5 μg/ml), 25% in the series with HIV-1 (1.0 μg/ml) and 0% in the series with HIV-1 (10.0 μg/ml). Also, the “Viability of cells, %” value with HIV-1 (0.1 μg/ml) is listed as 50%; in the series on HIV-1 (0.5 μg/ml), 53%; with HIV-1 (1.0 μg/ml) it was 57%; in the series with HIV-1 (10.0 μg/ml) it was 60%; in series [3] (100 μg/ml, human lymphoblastoid cells (cell control 95)), 79%; in series [3] (setting [4]) it was 82%. Also, the “Number of cells × 10^3/ml” value is 150 × 10^3/ml in series [3] (100 μg/ml, human lymphoblastoid cells (cell control 250)) and 150 × 10^3/ml in series [3] (setting [4]). Also, the entries for the “Degree of protection from CE virus, % A” value in series [2] (1.0 μg/ml) and in series [2] (10.0 μg/ml) were 33.3% and 100%, respectively. In addition, the “Degree of protection from CE virus, % B” value in series [2] (1.0 μg/ml) and in series [2] (10.0 μg/ml) was 100% throughout.

Source of the values: patent publication US20060122276A1, “Agent for inhibiting membrane virus reproduction, method for the production thereof, pharmaceutical composition and method for inhibiting viral infections” (priority 2003, published 2006).
